Laboratory results reported in patent US20190070170A1, “METHOD OF S[…]-1” (Macau University of Science and Technology, priority 2017, published 2019).

Assays:
CEBPβ (mPGES-1 promoter) = experiment: ChIP assay: CEBPβ DNA binding to mPGES-1 promoter in LPS-stimulated rat peritoneal macrophages; assay type: cell-based; conditions: 640 μM SIN 1 h, 1 μg/ml LPS 30 min
Procedure: Rat peritoneal macrophages were pretreated with 640 μM SIN (1 h) and stimulated with 1 μg/ml LPS (30 min) before fixation at room temperature for 10 min with 1% formaldehyde. Fixation was terminated by adding glycine (to 0.125 M) with an additional incubation of 5 min, then the cells were washed twice with ice-cold PBS and harvested by scraping and centrifugation (1500 rpm for 10 min at 4° C.). Cell lysis was performed using ChIP kit from abcam (Cambridge, UK) according to the manufacturer's instructions. Briefly, cell pellets were resuspended in 1 ml Buffer B by pipetting up and down several times in a microcentrifuge tube and incubated at room temperature for 10 min. After centrifugation at 5000 rpm, the pellet was collected and resuspended in ice cold Buffer C and incubated on ice for 10 min, followed by centrifugation (5,000 rpm for 10 min at 4° C.). The pellet was mixed with 100 μl Buffer D containing protease inhibitors, incubated on ice for 10 min and sonicated for 30 cycles in a Bioruptor UCD-300 sonicator (power on high, 30 s on, 30 s off per cycle), yielding DNA fragments of 150-200 bps (the size of sonicated chromatin was checked through running 2% agarose gel). Beads were blocked overnight in PBS with 0.5% BSA and then added to the samples. […]

COX-1 = COX-1 protein expression in hind paws of CIA DBA/1 mice; assay type: in vivo; conditions: SIN 100 mg/kg i.p.
Procedure: Female DBA/1 mice (8-9 weeks old) were purchased from Shanghai SiLaike (SLAC) Laboratory Animal Company (Shanghai, China) and fed with a chow diet and water at room temperature. Equal volume of complete Freuend's adjuvant (CFA) and Bovine Type II Collagen (CII) were mixed and emulsified using a homogenizer (13,000 rpm) on ice. On day 0, DBA/1 mice were immunized by injecting 50 μl of CII in CFA in the tail, approximately 2 cm from the base of the tail. […] The incidence of joint swelling in each group was recorded every two days since drug treatment. […]
Frozen paws were pulverized in liquid nitrogen using a stainless steel mortar and pestle, then re-suspended in 8 volumes of ice-cold PBS from Invitrogen (San Diego, Calif., USA) with 2.6 mM DTT from Promega (Madison, Wis., USA) and 2×Complete Protease Inhibitor mixture from Roche (Mannheim, Germany), and homogenized on ice bath using a tissue homogenizer from T25 digital, IKA (Stanfen, Germany) at 10,000 rpm/min for 5 min. […] The protein concentrations were measured using a Bio-Rad protein assay kit (Hercules, Calif., USA). […]
Whole-cell and nuclear proteins were obtained using RIPA lysis buffer (CST, Boston, Mass., USA) and Nuclear and Cytoplasmic Extraction Reagents kit from Thermo Scientific (Asheville, N.C., USA), respectively. […] The levels of protein expression were measured using Odyssey v3.0 software from Li-COR (Lincoln, Nebr., USA).

p65 = experiment: Nuclear translocation of p65 in LPS-stimulated rat peritoneal macrophages (immunofluorescence, western blotting); assay type: cell-based; conditions: 640 μM SIN 1 h, LPS 30 min
Procedure: Whole-cell and nuclear proteins were obtained using RIPA lysis buffer (CST, Boston, Mass., USA) and Nuclear and Cytoplasmic Extraction Reagents kit from Thermo Scientific (Asheville, N.C., USA), respectively. For immunoblotting, proteins from whole-cell, cytoplasm, nuclear, and microsomal fractions were separated on SDS-PAGE, then transferred onto a nitrocellulose membrane from GE Healthcare Life Sciences (Buckinghamshire, UK), and incubated with 5% skimmed milk at room temperature for 1 h. Membranes were incubated with the primary antibodies including cPLA2, p-cPLA2, COX-1 and p65 (all dilutions 1:1000), and COX-2 (dilution 1:500) from Cell Signaling Technology (Boston, Mass., USA); and mPGES-1 (dilution 1:200) from Cayman Chemical (Ann Arbor, Mich., USA); and β-actin (dilution 1:1000) from Santa Cruz Biotechnology (Santa Cruz, Calif., USA); and TBP (dilution 1:200) was from Abcam (Cambridge, UK) at 4° C. overnight and the band was visualized by incubating the anti-rabbit or anti-mouse secondary antibodies (dilution 1:10,000) from Li-COR (Lincoln, Nebr., USA) at room temperature for 1 h. The levels of protein expression were measured using Odyssey v3.0 software from Li-COR (Lincoln, Nebr., USA).
RAW 264.7 cells were seeded on glass coverslip at a density 2.0×10^5 cells/well in 6-well plates and incubated for 24 h. […]

[1] = test system: carrageenan-induced paw edema; experiment: Carrageenan-induced rat paw edema model; assay type: in vivo, SD rats; conditions: SIN 25, 50 and 100 mg/kg i.p. 2 h before carrageenan
Procedure: The model of carrageenan-induced paw edema was performed with SD rats (150-200 g). […] Briefly, rats were fasted for 12 h before experiment and intraperitoneal injection was performed with three different doses (25, 50 and 100 mg/kg) of SIN, or DEX (reference drug, 2 mg/kg) or 0.9% saline (Vehicle and Normal group rats), at 2 h prior to the induction of paw edema. Paw edema was induced by subcutaneous injection of 100 μl of 1% (w/v) freshly prepared λ-carrageenan (Sigma, St Louis, Mo., USA) diluted in saline in the right hind foot pad. 100 μl sterile saline was injected to the rats in the right hind paw as normal control. Paw volumes (ml) of right hind foot of each rat were measured using a plethysmometer (type 7150; UGO Basile, Comerio, Italy) at 0 h (before carrageenan injection) and then again at 1, 2, 3 and 4 h after the injection of carrageenan or saline. The percentage of paw edema of the right hind paws of all groups were calculated at different time points by the following equation: Swelling ratio in each time points=(the paw volume after injection−the paw volume before injection)/the paw volume before injection×100

Which results are given for `COC1=C[C@@H]2[C@@H]3Cc4ccc(OC)c(O)c4[C@]2(CCN3C)CC1=O` [SIN, sinomenine]?
DNA binding of CEBPβ to the mPGES-1 promoter (CEBPβ (mPGES-1 promoter)): inhibited; COX-1 expression in paw tissues (COX-1): did not produce observable changes; nuclear translocation of p65 (p65): does not produce observable inhibitory effects; paw edema (percentage of increase in paw volume) ([1]; at 2, 3 and 4 h): successfully reduced paw edema in a dose dependent manner; paw edema (percentage of increase in paw volume) ([1]; at 1 h): no effects
